Measured values as given in ChEMBL document CHEMBL1141068, “Synthesis and antibacterial activity of 2,4,6-tri substituted s-triazines” (2005).
In brackets after ≈: the same amount, converted by molar mass.

Legend:
Staphylococcus aureus = assay: Minimum inhibitory concentration against Staphylococcus aureus (Gram-positive) was determined by broth dilution method; assay type: functional
Bacillus sp. [1] = assay: Minimum inhibitory concentration against Bacillus sphaericus (Gram-positive) was determined by broth dilution method; assay type: functional, Lysinibacillus sphaericus; details: Bacillus sp. (in: firmicutes)
[2] = Minimum inhibitory concentration against Chromobacterium violaceum (Gram-negative) was determined by broth dilution method; assay type: functional
Klebsiella aerogenes = assay: Minimum inhibitory concentration against Klebsiella aerogenes (Gram-negative) in broth; assay type: functional
Bacillus subtilis = assay: Minimum inhibitory concentration against Bacillus subtilis (Gram-positive) was determined by broth dilution method; assay type: functional
Pseudomonas aeruginosa = assay: Minimum inhibitory concentration against Pseudomonas aeruginosa (Gram-negative) by broth dilution method; assay type: functional
Bacillus sp. [3] = assay: Minimum inhibitory concentration against Bacillus sphaericus (Gram-positive) in broth; assay type: functional, Lysinibacillus sphaericus; details: Bacillus sp. (in: firmicutes)

Compound	MIC (Staphylococcus aureus)	MIC (Bacillus sp. [1])	MIC [2]	MIC (Klebsiella aerogenes)	MIC (Bacillus subtilis)	MIC (Bacillus sp. [3])	MIC (Pseudomonas aeruginosa)
Clc1ccc(COc2nc(OCc3ccc(Cl)cc3)nc(OCc3ccc(Cl)cc3)n2)cc1	12.5 µg/mL (≈ 24.9 µM)	12.5 µg/mL (≈ 24.9 µM)	25 µg/mL (≈ 49.7 µM)	25 µg/mL (≈ 49.7 µM)	12.5 µg/mL (≈ 24.9 µM)	–	–
CC1(C)S[C@@H]2[C@H](NC(=O)Cc3ccccc3)C(=O)N2C1C(=O)O (single isomer, unassigned) [PENICILLIN G]	1.56 µg/mL (≈ 4.67 µM)	3.12 µg/mL (≈ 9.35 µM)	12.5 µg/mL (≈ 37.4 µM)	6.25 µg/mL (≈ 18.7 µM)	1.56 µg/mL (≈ 4.67 µM)	–	12.5 µg/mL (≈ 37.4 µM)
COc1ccc(COc2nc(OCc3ccc(OC)cc3)nc(OCc3ccc(OC)cc3)n2)cc1	25 µg/mL (≈ 51.1 µM)	25 µg/mL (≈ 51.1 µM)	6.25 µg/mL (≈ 12.8 µM)	25 µg/mL (≈ 51.1 µM)	25 µg/mL (≈ 51.1 µM)	–	–
CN[C@@H]1[C@H](O[C@H]2[C@H](O[C@H]3[C@H](O)[C@@H](O)[C@H](N=C(N)N)[C@@H](O)[C@@H]3N=C(N)N)O[C@@H](C)[C@]2(O)C=O)O[C@@H](CO)[C@H](O)[C@H]1O [STREPTOMYCIN]	6.25 µg/mL (≈ 10.7 µM)	12.5 µg/mL (≈ 21.5 µM)	3.12 µg/mL (≈ 5.37 µM)	1.56 µg/mL (≈ 2.69 µM)	6.25 µg/mL (≈ 10.7 µM)	–	3.12 µg/mL (≈ 5.37 µM)
Cc1ccc(CNc2nc(NCc3ccc(C)cc3)nc(NCc3ccc(C)cc3)n2)cc1	–	50 µg/mL (≈ 114 µM)	–	–	–	–	–
c1ccc(COc2nc(OCc3ccccc3)nc(OCc3ccccc3)n2)cc1	25 µg/mL (≈ 62.6 µM)	25 µg/mL (≈ 62.6 µM)	25 µg/mL (≈ 62.6 µM)	–	25 µg/mL (≈ 62.6 µM)	–	–

Now from value to compound, other results behind:

MIC (Staphylococcus aureus)	MIC (Bacillus sp. [1])	MIC [2]	MIC (Klebsiella aerogenes)	MIC (Bacillus subtilis)	MIC (Bacillus sp. [3])	Compound	MIC (Pseudomonas aeruginosa)
25 µg/mL (≈ 55 µM)	25 µg/mL (≈ 55 µM)	25 µg/mL (≈ 55 µM)	25 µg/mL (≈ 55 µM)	25 µg/mL (≈ 55 µM)	–	Clc1ccc(Cc2nc(Cc3ccc(Cl)cc3)nc(Cc3ccc(Cl)cc3)n2)cc1	–
25 µg/mL (≈ 63.1 µM)	25 µg/mL (≈ 63.1 µM)	25 µg/mL (≈ 63.1 µM)	25 µg/mL (≈ 63.1 µM)	25 µg/mL (≈ 63.1 µM)	–	c1ccc(CNc2nc(NCc3ccccc3)nc(NCc3ccccc3)n2)cc1	–
12.5 µg/mL (≈ 35.6 µM)	6.25 µg/mL (≈ 17.8 µM)	6.25 µg/mL (≈ 17.8 µM)	6.25 µg/mL (≈ 17.8 µM)	12.5 µg/mL (≈ 35.6 µM)	–	c1ccc(Cc2nc(Cc3ccccc3)nc(Cc3ccccc3)n2)cc1	–
25 µg/mL (≈ 51.4 µM)	12.5 µg/mL (≈ 25.7 µM)	25 µg/mL (≈ 51.4 µM)	25 µg/mL (≈ 51.4 µM)	25 µg/mL (≈ 51.4 µM)	–	COc1ccc(CNc2nc(NCc3ccc(OC)cc3)nc(NCc3ccc(OC)cc3)n2)cc1	–
25 µg/mL (≈ 55.1 µM)	12.5 µg/mL (≈ 27.6 µM)	12.5 µg/mL (≈ 27.6 µM)	25 µg/mL (≈ 55.1 µM)	25 µg/mL (≈ 55.1 µM)	–	Fc1ccc(COc2nc(OCc3ccc(F)cc3)nc(OCc3ccc(F)cc3)n2)cc1	–
–	–	–	–	–	50 µg/mL (≈ 111 µM)	Fc1ccc(CNc2nc(NCc3ccc(F)cc3)nc(NCc3ccc(F)cc3)n2)cc1	–
25 µg/mL (≈ 56.6 µM)	12.5 µg/mL (≈ 28.3 µM)	25 µg/mL (≈ 56.6 µM)	25 µg/mL (≈ 56.6 µM)	50 µg/mL (≈ 113 µM)	–	COc1ccc(Cc2nc(Cc3ccc(OC)cc3)nc(Cc3ccc(OC)cc3)n2)cc1	–
–	25 µg/mL (≈ 50 µM)	25 µg/mL (≈ 50 µM)	–	–	–	Clc1ccc(CNc2nc(NCc3ccc(Cl)cc3)nc(NCc3ccc(Cl)cc3)n2)cc1	–
